Assay results from ChEMBL document CHEMBL1201862, “PubChem BioAssay data set” (2004).
Activity calls are given as the source filed them.

Key:
[1] = THP-1 cell cytotoxicity, dose response, cytotoxicity control for non-replicating M. tuberculosis project (AID 489025); format: functional
[2] = Vero E6 cell cytotoxicity, dose response, cytotoxicity control for non-replicating M. tuberculosis project, secondary assay (AID 492998); format: functional, VeroE6; conditions: Vero C1008
[3] = cells; format: functional
[4] = bead-based luminescence quenchers, dual-tagged ARNT – biochemical, AlphaScreen, cherry-pick, artefact control for ARNT-TACC3 interaction inhibitor project, dose response (AID 651705); format: functional;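 note: AlphaScreen bead proximity signal that flags compounds interfering with the detection technology; potency reflects signal decrease which marks the compound as an assay artifact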
[5] = biological target: Potassium voltage-gated channel subfamily KQT member 2 (Rattus norvegicus, UniProt O88943); test: blockers of KCNQ2 channel current – cell-based, automated electrophysiology, set II, rat KCNQ2, dose response (AID 588637); format: functional
[6] = biological target: Tyrosine-protein phosphatase non-receptor type 11 (Homo sapiens, UniProt Q06124); test: PTPN11 enzyme inhibitors – biochemical, selectivity assay for STEP inhibitor project, dose response (AID 602367); format: functional; conditions: read-out: IC50_Mean
[7] = biological target: Tyrosine-protein phosphatase non-receptor type 5 (Homo sapiens, UniProt P54829); test: PTPN5 enzyme inhibition – biochemical, fluorescence intensity, uHTS hits, confirmation (AID 602372); format: functional; conditions: read-out: IC50_Mean
[8] = biological target: Dual specificity protein phosphatase 3 (Homo sapiens, UniProt P51452); test: VHR phosphatase inhibition, dose response, selectivity assay for STEP inhibitor project, biochemical (AID 602374); format: functional; conditions: read-out: IC50_Mean
[9] = biological target: T1, Interleukin-8 (Homo sapiens, UniProt P10145); test: Dose Response confirmation of uHTS small molecule hits for cystic fibrosis induced NFkb Inhibitors in a TNFa-induced IL8 counterscreen.; format: functional; conditions: read-out: IC50_Mean
T1 sequence (P10145 whole entry): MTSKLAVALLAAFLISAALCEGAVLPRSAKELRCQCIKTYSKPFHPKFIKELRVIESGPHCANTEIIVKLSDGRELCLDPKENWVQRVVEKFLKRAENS

[10] = biological target: T2, Rac GTPase-activating protein 1 (Homo sapiens, UniProt Q9H0H5); test: blockers of MgcRacGAP-driven Rac1 GTP hydrolysis – biochemical, ADP Hunter fluorescence, primary and confirmatory, confirmation (AID 624330); format: functional
T2 sequence (Q9H0H5 whole entry): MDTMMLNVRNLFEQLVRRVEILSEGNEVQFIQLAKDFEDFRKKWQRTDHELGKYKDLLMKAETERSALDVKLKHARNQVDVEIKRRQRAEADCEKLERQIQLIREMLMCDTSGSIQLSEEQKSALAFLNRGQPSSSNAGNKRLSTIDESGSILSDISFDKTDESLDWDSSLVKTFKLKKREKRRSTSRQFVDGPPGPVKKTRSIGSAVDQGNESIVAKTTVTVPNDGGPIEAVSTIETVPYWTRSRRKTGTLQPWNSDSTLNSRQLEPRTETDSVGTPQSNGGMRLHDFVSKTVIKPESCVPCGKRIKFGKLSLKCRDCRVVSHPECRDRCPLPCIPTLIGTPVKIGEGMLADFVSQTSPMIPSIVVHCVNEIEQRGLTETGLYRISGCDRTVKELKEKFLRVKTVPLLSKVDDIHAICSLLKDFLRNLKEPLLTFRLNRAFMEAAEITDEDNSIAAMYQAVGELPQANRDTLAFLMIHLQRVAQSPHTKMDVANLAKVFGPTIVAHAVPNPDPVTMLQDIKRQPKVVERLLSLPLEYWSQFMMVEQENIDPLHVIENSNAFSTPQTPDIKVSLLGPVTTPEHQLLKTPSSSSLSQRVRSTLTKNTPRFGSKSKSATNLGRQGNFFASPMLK

[11] = biological target: T1, Interleukin-8; test: Dose Response confirmation of uHTS small molecule hits for cystic fibrosis induced NFkb Inhibitors in a PAF-induced IL8 counterscreen.; format: functional; conditions: read-out: IC50_Mean
[12] = biological target: Mitochondrial peptide methionine sulfoxide reductase (Bos taurus, UniProt P54149); format: functional;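 note: absorbance read-out, biochemical high-throughput dose-response screen for MsrA inhibitors, confirmatory; recombinant bovine MsrA coupled to E. coli TrxB with NADPH and selenocystamine; potency is for inhibitors of MsrA activity on DMSO substrate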
[13] = biological target: Nuclear receptor subfamily 5 group A member 2 (Homo sapiens, UniProt O00482); format: functional, cell-based;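 note: HEK293T cells transfected with LRH-1 and a StAR promoter luciferase reporter; potency for inhibitors that lower LRH-1 driven reporter light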
[14] = biological target: Steroidogenic factor 1 (Homo sapiens, UniProt Q13285); test: Counterscreen for inverse agonists of the liver receptor homolog-1 (LRH-1; NR5A2): Luminescence-based cell-based high throughput dose response assay to identify inverse agonists of the Steroidogenic Factor 1 Nuclear Receptor (SF1; NR5A1).; format: functional
[15] = nonselective StAR promoter luciferase inhibitors – cell-based, luminescence, luciferase reporter, counter-screen for LRH-1 inverse agonist project, dose response (AID 651969); format: functional
[16] = biological target: T3, Heat shock factor protein 1 (Mus musculus, UniProt P38532); test: enhancement of HSF1-driven luciferase signal – cell-based, NIH3T3, luminescence, dose retest, confirmation (AID 435004); format: functional;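 note: stress induced by proteasome inhibitor MG132 added 30 min after compound; luciferase reporter driven by HSF1 response element in NIH3T3 cells; actives raise luminescence as potentiators of the MG132 stress response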
T3 sequence (P38532 whole entry): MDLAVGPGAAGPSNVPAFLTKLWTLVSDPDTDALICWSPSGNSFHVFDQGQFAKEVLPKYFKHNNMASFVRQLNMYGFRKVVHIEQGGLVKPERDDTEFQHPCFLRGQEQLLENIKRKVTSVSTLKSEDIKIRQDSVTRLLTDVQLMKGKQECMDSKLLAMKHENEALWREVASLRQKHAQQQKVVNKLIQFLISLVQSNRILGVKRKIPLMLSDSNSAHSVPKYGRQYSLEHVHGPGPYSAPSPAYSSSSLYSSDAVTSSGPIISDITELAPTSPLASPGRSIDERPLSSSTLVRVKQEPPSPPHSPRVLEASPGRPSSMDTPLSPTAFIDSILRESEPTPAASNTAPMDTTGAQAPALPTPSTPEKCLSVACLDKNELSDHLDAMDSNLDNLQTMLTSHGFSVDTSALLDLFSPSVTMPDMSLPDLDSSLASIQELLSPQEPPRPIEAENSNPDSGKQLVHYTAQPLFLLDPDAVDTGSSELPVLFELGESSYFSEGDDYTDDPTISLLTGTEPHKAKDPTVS

[17] = biological target: Melanocortin receptor 4 (Homo sapiens, UniProt P32245); test: inhibitors of MC4R cAMP signaling – cell-based, TR-FRET, biased antagonists, dose response (AID 602298); format: functional;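 note: antagonist potency against agonist-stimulated cAMP production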
[18] = cAMP pathway inhibition in counterscreen cell line – TR-FRET cAMP detection, counter-screen for MC4R biased antagonist project, dose response (AID 602305); format: functional, cell-based;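 note: U2OS cells stimulated with forskolin near its EC80 as the cAMP inducer; potency is for inhibition of forskolin-stimulated cAMP signaling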
[19] = biological target: Beta-galactosidase (Escherichia coli, UniProt Q8VNN2); test: Dose response counterscreen for EBI2 assay utilizing the enzyme, b-galactosidase.; format: functional
[20] = biological target: T4, Low molecular weight phosphotyrosine protein phosphatase (Homo sapiens, UniProt P24666); format: functional; conditions: read-out: IC50_Mean;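 note: Dose-response confirmation assay measuring inhibition of LMPTP enzyme activity by fluorescence intensity read-out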
T4 sequence (P24666 whole entry): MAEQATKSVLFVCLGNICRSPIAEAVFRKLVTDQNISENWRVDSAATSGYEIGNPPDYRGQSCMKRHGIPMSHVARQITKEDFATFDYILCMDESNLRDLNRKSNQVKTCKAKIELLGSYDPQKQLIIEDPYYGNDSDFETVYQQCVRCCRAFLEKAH

[21] = biological target: T5, Tyrosine-protein phosphatase non-receptor type 22 (Homo sapiens, UniProt Q9Y2R2); test: PTPN22 enzyme inhibitors – biochemical, fluorescence, LYP catalytic domain, selectivity assay for LMPTP inhibitor project, dose response (AID 652006); format: functional; conditions: read-out: IC50_Mean
T5 sequence (Q9Y2R2 whole entry): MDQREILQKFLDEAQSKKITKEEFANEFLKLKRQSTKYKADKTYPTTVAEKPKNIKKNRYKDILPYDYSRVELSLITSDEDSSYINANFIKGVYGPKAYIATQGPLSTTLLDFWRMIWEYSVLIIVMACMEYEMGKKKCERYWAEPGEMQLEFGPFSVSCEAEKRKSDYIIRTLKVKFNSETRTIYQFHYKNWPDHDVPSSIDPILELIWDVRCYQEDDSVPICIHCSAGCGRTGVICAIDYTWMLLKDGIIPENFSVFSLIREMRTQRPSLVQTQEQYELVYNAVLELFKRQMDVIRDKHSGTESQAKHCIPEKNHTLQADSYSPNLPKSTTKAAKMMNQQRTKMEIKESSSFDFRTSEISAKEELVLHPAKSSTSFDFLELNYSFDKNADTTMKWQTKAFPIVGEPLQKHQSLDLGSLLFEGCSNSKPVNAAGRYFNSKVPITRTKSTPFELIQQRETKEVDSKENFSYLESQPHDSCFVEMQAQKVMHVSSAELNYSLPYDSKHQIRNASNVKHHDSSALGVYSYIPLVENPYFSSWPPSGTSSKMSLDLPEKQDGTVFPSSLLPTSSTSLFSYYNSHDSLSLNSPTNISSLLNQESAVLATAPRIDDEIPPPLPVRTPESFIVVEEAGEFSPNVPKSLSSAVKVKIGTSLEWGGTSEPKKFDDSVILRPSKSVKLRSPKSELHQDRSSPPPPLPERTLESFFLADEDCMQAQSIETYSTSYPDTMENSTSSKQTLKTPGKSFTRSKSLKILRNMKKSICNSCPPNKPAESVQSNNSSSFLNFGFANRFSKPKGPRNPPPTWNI

[22] = cells; format: functional, cell-based
[23] = cells; format: functional, cell-based; remark: listed apart in the source
[24] = tested on: INS1; test: INS-1E survival protection against cytokine death – cell-based, luminescence, retest, dose response (AID 449756); format: functional; conditions: Rattus norvegicus;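 note: cell death triggered by IL-1 beta plus TNF-alpha plus IFN-gamma mixture; protective hits raise ATP signal compared with cytokine alone wells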
[25] = biological target: DNA (cytosine-5)-methyltransferase 1 (Homo sapiens, UniProt P26358); test: inhibition of DNA methylation by DNMT1 – biochemical, fluorescent molecular beacon, confirmation (AID 602386); format: functional
[26] = biological target: SWI/SNF-related matrix-associated actin-dependent regulator of chromatin subfamily A member 2 (Homo sapiens, UniProt P51531); test: Luminescence-based cell-based high throughput dose response assay to identify activators of the function of SWI/SNF related, matrix associated, actin dependent regulator of chromatin, subfamily a, member 2 (SMARCA2, BRM).; format: functional
[27] = Counterscreen for activators of the function of SWI/SNF related, matrix associated, actin dependent regulator of chromatin, subfamily a, member 2 (SMARCA2, BRM): Luminescence-based cell-based high throughput dose response assay to identify non-selective compounds using the VP16 reporter assay.; format: functional
[28] = biological target: T6, Aryl hydrocarbon receptor (Homo sapiens, UniProt P35869); conditions: Potency;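 note: confirmatory quantitative high-throughput screen measuring activation of the AhR signaling pathway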
T6 sequence (P35869 whole entry): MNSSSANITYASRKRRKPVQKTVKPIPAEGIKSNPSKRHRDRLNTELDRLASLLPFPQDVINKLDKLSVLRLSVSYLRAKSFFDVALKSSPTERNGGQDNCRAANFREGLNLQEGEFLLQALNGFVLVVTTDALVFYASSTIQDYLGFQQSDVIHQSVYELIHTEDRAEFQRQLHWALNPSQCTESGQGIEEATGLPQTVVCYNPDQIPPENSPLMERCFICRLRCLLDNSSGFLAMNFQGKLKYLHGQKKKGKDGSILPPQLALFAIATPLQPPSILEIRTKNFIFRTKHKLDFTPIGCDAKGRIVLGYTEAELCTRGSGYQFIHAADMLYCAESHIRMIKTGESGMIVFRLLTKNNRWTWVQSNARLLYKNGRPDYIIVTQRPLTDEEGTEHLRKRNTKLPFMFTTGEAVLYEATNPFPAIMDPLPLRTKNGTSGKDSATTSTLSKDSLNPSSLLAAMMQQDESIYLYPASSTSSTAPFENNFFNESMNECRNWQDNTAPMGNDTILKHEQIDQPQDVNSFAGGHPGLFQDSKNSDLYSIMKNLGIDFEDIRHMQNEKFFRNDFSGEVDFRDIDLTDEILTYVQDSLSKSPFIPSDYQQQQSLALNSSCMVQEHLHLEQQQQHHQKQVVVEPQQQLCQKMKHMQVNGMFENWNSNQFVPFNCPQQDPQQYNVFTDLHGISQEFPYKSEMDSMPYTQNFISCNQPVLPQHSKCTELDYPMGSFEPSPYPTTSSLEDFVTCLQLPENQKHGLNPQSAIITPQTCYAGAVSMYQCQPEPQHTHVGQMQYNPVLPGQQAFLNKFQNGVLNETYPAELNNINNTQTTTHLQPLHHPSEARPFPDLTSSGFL

[29] = biological target: Testis-specific serine/threonine-protein kinase 2 (Homo sapiens, UniProt Q96PF2); format: functional;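 note: part of the Navigating the Kinome panel, target entry STK22B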
[30] = biological target: Cell division cycle 7-related protein kinase (Homo sapiens, UniProt O00311); format: functional;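 note: value obtained from a kinome-wide kinase panel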
[31] = biological target: Mitogen-activated protein kinase 12 (Homo sapiens, UniProt P53778); format: functional;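 note: measured as one member of a kinome-wide kinase profiling panel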
Chain of Mitogen-activated protein kinase 12 (P53778 whole entry): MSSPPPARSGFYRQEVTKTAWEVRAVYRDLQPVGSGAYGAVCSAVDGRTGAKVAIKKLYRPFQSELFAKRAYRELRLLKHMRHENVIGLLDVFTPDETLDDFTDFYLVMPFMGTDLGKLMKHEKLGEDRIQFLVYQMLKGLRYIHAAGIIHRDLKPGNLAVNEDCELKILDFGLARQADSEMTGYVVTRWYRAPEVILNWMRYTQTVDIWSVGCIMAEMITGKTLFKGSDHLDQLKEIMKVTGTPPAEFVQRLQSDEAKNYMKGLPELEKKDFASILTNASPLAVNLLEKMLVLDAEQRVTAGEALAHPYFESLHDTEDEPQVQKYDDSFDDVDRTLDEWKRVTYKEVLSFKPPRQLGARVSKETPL

Chain of Beta-galactosidase (Q8VNN2 whole entry): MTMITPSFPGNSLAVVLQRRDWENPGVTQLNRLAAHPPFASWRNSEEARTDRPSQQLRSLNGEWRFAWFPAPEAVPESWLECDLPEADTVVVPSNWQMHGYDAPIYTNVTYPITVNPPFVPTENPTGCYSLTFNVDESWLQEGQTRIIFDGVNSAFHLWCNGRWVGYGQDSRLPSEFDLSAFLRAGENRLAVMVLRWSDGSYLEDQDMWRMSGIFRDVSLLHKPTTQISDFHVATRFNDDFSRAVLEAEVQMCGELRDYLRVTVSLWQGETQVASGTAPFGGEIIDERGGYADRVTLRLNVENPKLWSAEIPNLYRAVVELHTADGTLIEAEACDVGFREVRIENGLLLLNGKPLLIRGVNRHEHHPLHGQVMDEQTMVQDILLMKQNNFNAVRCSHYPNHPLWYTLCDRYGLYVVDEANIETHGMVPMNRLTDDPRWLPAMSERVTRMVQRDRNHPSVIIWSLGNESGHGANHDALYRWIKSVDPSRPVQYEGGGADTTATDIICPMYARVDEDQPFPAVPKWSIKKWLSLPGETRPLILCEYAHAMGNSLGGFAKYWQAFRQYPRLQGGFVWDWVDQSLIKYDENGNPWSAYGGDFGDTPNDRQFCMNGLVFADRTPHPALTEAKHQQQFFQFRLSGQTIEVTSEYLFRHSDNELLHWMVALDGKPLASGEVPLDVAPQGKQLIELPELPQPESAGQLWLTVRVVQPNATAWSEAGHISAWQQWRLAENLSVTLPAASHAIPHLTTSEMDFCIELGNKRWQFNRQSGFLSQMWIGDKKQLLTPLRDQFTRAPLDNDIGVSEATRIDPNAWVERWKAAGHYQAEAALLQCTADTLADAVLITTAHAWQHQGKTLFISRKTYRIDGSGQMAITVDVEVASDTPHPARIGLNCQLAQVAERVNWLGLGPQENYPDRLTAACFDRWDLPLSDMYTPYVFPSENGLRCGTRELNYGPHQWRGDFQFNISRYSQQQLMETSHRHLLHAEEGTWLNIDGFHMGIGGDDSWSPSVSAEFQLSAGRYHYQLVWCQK
Chain of Melanocortin receptor 4 (P32245 whole entry): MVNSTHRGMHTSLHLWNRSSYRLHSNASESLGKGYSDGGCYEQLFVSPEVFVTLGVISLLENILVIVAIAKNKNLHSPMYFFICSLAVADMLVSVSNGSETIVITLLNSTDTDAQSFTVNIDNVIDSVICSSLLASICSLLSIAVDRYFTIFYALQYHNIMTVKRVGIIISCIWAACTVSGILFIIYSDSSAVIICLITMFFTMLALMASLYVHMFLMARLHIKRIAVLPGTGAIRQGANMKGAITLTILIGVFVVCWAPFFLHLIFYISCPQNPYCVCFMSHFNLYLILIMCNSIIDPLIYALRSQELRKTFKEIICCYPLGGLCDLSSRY
Chain of SWI/SNF-related matrix-associated actin-dependent regulator of chromatin subfamily A member 2 (P51531 whole entry): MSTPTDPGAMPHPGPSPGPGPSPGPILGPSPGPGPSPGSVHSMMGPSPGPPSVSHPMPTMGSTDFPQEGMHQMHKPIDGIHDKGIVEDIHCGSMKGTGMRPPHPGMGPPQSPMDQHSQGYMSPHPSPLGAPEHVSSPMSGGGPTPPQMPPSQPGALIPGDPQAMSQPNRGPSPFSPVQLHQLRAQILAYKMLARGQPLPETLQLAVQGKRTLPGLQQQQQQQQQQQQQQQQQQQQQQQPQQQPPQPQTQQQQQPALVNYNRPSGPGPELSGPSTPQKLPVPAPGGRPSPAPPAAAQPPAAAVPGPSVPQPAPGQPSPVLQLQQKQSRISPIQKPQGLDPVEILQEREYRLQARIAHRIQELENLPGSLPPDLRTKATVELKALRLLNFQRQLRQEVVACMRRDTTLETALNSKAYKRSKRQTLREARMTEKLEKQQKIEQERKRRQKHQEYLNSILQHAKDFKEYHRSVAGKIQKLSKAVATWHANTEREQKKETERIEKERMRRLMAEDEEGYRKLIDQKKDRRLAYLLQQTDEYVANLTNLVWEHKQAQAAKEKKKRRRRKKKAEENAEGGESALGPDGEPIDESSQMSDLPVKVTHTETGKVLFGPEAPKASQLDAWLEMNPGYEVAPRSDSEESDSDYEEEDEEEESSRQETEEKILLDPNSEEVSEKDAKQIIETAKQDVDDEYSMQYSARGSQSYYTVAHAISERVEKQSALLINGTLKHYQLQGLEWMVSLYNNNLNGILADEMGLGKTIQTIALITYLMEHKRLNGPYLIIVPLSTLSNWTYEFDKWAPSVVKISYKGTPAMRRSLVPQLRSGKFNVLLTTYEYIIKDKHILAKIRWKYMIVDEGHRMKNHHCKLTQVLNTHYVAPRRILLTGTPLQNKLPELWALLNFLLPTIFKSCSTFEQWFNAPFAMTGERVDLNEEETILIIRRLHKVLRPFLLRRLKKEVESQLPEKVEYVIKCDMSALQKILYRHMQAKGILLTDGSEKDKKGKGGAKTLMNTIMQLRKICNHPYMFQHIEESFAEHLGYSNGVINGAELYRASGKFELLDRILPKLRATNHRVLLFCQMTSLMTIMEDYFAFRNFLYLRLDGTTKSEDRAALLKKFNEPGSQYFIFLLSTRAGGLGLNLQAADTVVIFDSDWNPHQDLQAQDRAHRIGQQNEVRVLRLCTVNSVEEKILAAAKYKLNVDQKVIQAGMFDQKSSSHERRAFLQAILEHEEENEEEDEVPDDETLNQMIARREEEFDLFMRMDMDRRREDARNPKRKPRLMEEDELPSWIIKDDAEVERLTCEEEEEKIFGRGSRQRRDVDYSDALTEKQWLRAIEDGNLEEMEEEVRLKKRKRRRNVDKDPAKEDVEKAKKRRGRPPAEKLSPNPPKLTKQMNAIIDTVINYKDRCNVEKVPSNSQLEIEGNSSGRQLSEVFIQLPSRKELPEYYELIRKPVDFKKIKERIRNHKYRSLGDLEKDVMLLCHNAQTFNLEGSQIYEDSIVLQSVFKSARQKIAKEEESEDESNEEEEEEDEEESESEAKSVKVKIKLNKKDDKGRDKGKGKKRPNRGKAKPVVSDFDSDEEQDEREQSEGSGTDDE
Chain of Tyrosine-protein phosphatase non-receptor type 11 (Q06124 whole entry): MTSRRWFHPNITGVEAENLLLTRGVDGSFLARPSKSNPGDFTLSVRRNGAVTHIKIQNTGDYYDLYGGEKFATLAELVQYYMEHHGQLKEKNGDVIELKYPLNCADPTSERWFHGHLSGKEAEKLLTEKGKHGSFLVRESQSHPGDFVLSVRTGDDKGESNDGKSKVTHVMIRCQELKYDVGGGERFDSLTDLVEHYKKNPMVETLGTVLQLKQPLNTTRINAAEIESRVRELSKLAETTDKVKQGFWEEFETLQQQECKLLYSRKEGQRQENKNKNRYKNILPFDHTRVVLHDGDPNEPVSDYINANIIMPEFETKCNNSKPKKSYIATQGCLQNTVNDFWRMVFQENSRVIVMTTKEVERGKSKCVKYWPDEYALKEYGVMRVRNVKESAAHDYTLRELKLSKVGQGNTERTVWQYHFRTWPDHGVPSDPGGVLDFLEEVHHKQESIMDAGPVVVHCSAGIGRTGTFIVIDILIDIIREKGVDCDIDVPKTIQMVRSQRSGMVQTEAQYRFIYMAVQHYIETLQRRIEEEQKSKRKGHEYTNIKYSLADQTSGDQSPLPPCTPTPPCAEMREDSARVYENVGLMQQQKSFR
Chain of Nuclear receptor subfamily 5 group A member 2 (O00482 whole entry): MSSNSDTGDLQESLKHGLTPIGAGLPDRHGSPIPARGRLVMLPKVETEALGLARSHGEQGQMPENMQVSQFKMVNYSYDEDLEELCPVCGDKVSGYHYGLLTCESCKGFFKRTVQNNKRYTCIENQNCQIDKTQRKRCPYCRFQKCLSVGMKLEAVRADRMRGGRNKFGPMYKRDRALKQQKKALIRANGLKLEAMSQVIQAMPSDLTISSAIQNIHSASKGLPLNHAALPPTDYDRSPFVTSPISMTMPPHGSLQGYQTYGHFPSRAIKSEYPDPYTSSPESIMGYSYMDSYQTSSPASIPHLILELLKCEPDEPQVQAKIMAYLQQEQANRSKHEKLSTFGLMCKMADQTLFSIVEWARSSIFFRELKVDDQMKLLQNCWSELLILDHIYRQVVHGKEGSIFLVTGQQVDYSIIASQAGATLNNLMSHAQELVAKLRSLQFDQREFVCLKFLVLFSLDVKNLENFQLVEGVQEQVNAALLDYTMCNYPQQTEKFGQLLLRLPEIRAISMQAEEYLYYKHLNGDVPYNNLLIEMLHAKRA
Chain of Mitochondrial peptide methionine sulfoxide reductase (P54149 whole entry): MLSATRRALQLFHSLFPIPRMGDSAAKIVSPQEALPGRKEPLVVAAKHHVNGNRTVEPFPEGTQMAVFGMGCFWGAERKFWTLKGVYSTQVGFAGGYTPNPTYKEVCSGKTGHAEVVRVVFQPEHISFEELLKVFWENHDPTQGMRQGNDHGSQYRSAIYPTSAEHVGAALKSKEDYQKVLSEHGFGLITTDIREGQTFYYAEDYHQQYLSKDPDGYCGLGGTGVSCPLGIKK
Chain of Testis-specific serine/threonine-protein kinase 2 (Q96PF2 whole entry): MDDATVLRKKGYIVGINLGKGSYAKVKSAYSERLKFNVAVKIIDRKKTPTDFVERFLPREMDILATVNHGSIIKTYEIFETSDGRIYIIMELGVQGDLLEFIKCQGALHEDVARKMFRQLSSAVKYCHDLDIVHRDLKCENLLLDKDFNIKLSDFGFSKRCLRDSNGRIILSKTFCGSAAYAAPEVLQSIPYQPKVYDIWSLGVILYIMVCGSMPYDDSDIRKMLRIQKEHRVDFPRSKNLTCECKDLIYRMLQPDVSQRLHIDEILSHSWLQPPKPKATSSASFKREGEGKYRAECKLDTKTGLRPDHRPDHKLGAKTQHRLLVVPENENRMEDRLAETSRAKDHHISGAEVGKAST

## c1ccc(-c2nc3ccccn3c2NC2CCCC2)nc1
[1]
  CC50: 28.8 µM (active)
[2]
  CC50: > 20 µM (active)
[3]
  IC50: 4.27 µM (active)
[4]
  AC50: 87.6 µM (active)

## Cc1ccc2nc(-c3ccccc3)cc(C(=O)N3CC(C)OC(C)C3)c2c1 (stereo unspecified)
[5]
  IC50: 0.0681 µM (active)

## CCOC(=O)N1CCC(N(CCN(C)C)C(=S)Nc2ccc(Oc3ccccc3)cc2)CC1
[6]
  IC50: 3.17 µM (active)
[7]
  IC50: 6.93 µM (active)
[8]
  IC50: 0.5 µM (active)

## COc1ccc(-c2c[nH]nc2-c2ccc(O)cc2O)cc1
[9]
  IC50: 2.62 µM (active)
[10]
  IC50: 43.9 µM (active)
[11]
  IC50: 6.94 µM (active)

## O=C(NCCc1ccccc1)c1ccc(=O)oc1
[12]
  IC50: 144 µM (inactive)

## CC(=O)c1ccc(OC(C)C(=O)OCC(=O)NCCc2ccccc2)cc1 (stereo unspecified)
[13]
  IC50: 9.39 µM (active)
[14]
  IC50: 8.19 µM (active)
[15]
  IC50: 35.9 µM (inactive)

## CCOC(=O)c1ccc(/N=c2\sc(C(=O)OC)cc(=O)n2-c2ccc(C(=O)OCC)cc2)cc1
[16]
  EC50: 3.42 µM (active)
[17]
  IC50: > 64.6 µM (inactive)
[18]
  IC50: > 64.6 µM (inactive)
[19]
  IC50: > 80 µM (inactive)

## CC1C(=O)N(Cc2cn(Cc3ccco3)nn2)CCS(=O)(=O)N1Cc1ccc(-c2cccnc2)cc1 (stereo unspecified)
[20]
  IC50: 15.2 µM (active)
[21]
  IC50: 26.6 µM (inactive)

## CCN(CC)CCOc1ccc2c(c1)C(=NO)c1cc(OCCN(CC)CC)ccc1-2
[22]
  EC50: > 350 µM (not active)
[23]
  EC50: > 350 µM (not active)
[24]
  AC50: 5.22 µM (active)
[25]
  IC50: > 99 µM (inactive)
[26]
  EC50: 11.4 µM (inactive)
[27]
  EC50: > 91.1 µM (inactive)

## Cc1ccccc1C(=O)Nc1cccc(OC(C)C)c1 [MEPRONIL]
[28]
  AC50: 28.2 µM (inconclusive)

## C[S+]([O-])c1ccc(-c2nc(-c3ccncc3)c(-c3ccc(F)cc3)[nH]2)cc1 (stereo unspecified) [SB-203580]
[29]
  Ki: > 1.58 µM (inactive)
[30]
  Ki: > 1.26 µM (inactive)
[31]
  Ki: > 6.31 µM (inactive)
